# Calls of active or inactive are those of the source. The calls are words filed in the database; no cut-off is given here.
# Experiments:
# Pseudomonas aeruginosa [1] = experiment: Antibacterial activity against Pseudomonas aeruginosa KCTC 1637 strain assessed as bacterial growth inhibition measured at 18 to 24 hrs by microdilution assay; type: functional; conditions: time 18-24 hrs
# Staphylococcus aureus [2] = experiment: Additive antibacterial activity against multidrug-resistant Staphylococcus aureus CCARM 3089 strain assessed as chloramphenicol fractional inhibitory concentration by checkerboard assay; type: functional
# Staphylococcus aureus [3] = experiment: Synergistic antibacterial activity against methicillin-resistant Staphylococcus aureus CCARM 3089 strain assessed as chloramphenicol MIC by checkerboard assay; type: functional
# Staphylococcus aureus [4] = experiment: Potency index, ratio of melittin MIC to test compound MIC against methicillin-resistant Staphylococcus aureus CCARM 3089 assessed as bacterial growth inhibition measured at 18 to 24 hrs by microdilution assay; type: functional; conditions: time 18-24 hrs
# Cell membrane = experiment: Induction of cell membrane damage in Escherichia coli KCTC 1682 assessed as increase in fluorescent intensity at 2 times MIC incubated for 30 mins by PI staining based flow cytometry assay (reference value: 9.79 %); type: subcellular
# Staphylococcus aureus [5] = experiment: Synergistic antibacterial activity against multidrug-resistant Staphylococcus aureus CCARM 3089 strain assessed as fractional inhibitory concentration index in presence of chloramphenicol by checkerboard assay; type: functional
# Staphylococcus aureus [6] = experiment: Synergistic antibacterial activity against methicillin-resistant Staphylococcus aureus CCARM 3089 strain assessed as bacterial growth inhibition in presence of chloramphenicol by checkerboard assay; type: functional
# Staphylococcus aureus [7] = experiment: Synergistic antibacterial activity against multidrug-resistant Staphylococcus aureus CCARM 3089 strain assessed as chloramphenicol fractional inhibitory concentration by checkerboard assay; type: functional
# Staphylococcus aureus [8] = experiment: Potency index, ratio of melittin MIC to test compound MIC against methicillin-resistant Staphylococcus aureus CCARM 3095 assessed as bacterial growth inhibition measured at 18 to 24 hrs by microdilution assay; type: functional; conditions: time 18-24 hrs
# Staphylococcus aureus [9] = experiment: Potency index, ratio of melittin MIC to test compound MIC against methicillin-resistant Staphylococcus aureus CCARM 3090 assessed as bacterial growth inhibition measured at 18 to 24 hrs by microdilution assay; type: functional; conditions: time 18-24 hrs
# Staphylococcus aureus [10] = experiment: Synergistic antibacterial activity against methicillin-resistant Staphylococcus aureus CCARM 3089 strain assessed as fractional inhibitory concentration in presence of chloramphenicol by checkerboard assay; type: functional
# Pseudomonas aeruginosa [11] = experiment: Antibacterial activity against multidrug-resistant Pseudomonas aeruginosa CCARM 2095 strain assessed as chloramphenicol MIC by checkerboard assay; type: functional
# Staphylococcus aureus [12] = experiment: Additive antibacterial activity against methicillin-resistant Staphylococcus aureus CCARM 3089 strain assessed as bacterial growth inhibition in presence of ciprofloxacin by checkerboard assay; type: functional
# Staphylococcus aureus [13] = experiment: Additive antibacterial activity against methicillin-resistant Staphylococcus aureus CCARM 3089 strain assessed as ciprofloxacin MIC by checkerboard assay; type: functional
# Pseudomonas aeruginosa [14] = experiment: Antibacterial activity against multidrug-resistant Pseudomonas aeruginosa CCARM 2095 strain assessed as fractional inhibitory concentration index in presence of chloramphenicol by checkerboard assay; type: functional
# Pseudomonas aeruginosa [15] = experiment: Additive antibacterial activity against multidrug-resistant Pseudomonas aeruginosa CCARM 2095 strain assessed as oxacillin fractional inhibitory concentration by checkerboard assay; type: functional
# Pseudomonas aeruginosa [16] = experiment: Antibacterial activity against multidrug-resistant Pseudomonas aeruginosa CCARM 2095 strain assessed as bacterial growth inhibition in presence of chloramphenicol by checkerboard assay; type: functional
# Pseudomonas aeruginosa [17] = experiment: Additive antibacterial activity against multidrug-resistant Pseudomonas aeruginosa CCARM 2095 strain assessed as fractional inhibitory concentration in presence of oxacillin by checkerboard assay; type: functional
# Pseudomonas aeruginosa [18] = experiment: Antibacterial activity against multidrug-resistant Pseudomonas aeruginosa CCARM 2095 strain assessed as bacterial growth inhibition by checkerboard assay; type: functional
# Pseudomonas aeruginosa [19] = experiment: Additive antibacterial activity against multidrug-resistant Pseudomonas aeruginosa CCARM 2095 strain assessed as bacterial growth inhibition in presence of oxacillin by checkerboard assay; type: functional
# Pseudomonas aeruginosa [20] = experiment: Additive antibacterial activity against multidrug-resistant Pseudomonas aeruginosa CCARM 2095 strain assessed as fractional inhibitory concentration index in presence of oxacillin by checkerboard assay; type: functional
# Staphylococcus aureus [21] = experiment: Additive antibacterial activity against multidrug-resistant Staphylococcus aureus CCARM 3089 strain assessed as fractional inhibitory concentration index in presence of ciprofloxacin by checkerboard assay; type: functional
# Pseudomonas aeruginosa [22] = experiment: Antibacterial activity against multidrug-resistant Pseudomonas aeruginosa CCARM 2095 strain assessed as fractional inhibitory concentration in presence of chloramphenicol by checkerboard assay; type: functional
# Pseudomonas aeruginosa [23] = experiment: Additive antibacterial activity against multidrug-resistant Pseudomonas aeruginosa CCARM 2095 strain assessed as Oxacillin MIC by checkerboard assay; type: functional
# Pseudomonas aeruginosa [24] = experiment: Antibacterial activity against multidrug-resistant Pseudomonas aeruginosa CCARM 2095 strain assessed as fractional inhibitory concentration by checkerboard assay; type: functional
# Pseudomonas aeruginosa [25] = experiment: Synergistic bactericidal activity against multidrug-resistant Pseudomonas aeruginosa CCARM 2095 at 0.5 times MIC measured after 60 mins in presence of 0.5 times MIC of ciprofloxacin by time-kill kinetics assay; type: functional, organism-based
# Pseudomonas aeruginosa [26] = experiment: Synergistic bactericidal activity against multidrug-resistant Pseudomonas aeruginosa CCARM 2095 at 0.5 times MIC measured after 60 mins in presence of 0.5 times MIC of oxacillin by time-kill kinetics assay; type: functional, organism-based
# Pseudomonas aeruginosa [27] = experiment: Antibiofilm activity against multidrug-resistant Pseudomonas aeruginosa assessed as bacterial growth inhibition at 8 ug/ml relative to control; type: functional
# Pseudomonas aeruginosa [28] = experiment: Synergistic bactericidal activity against multidrug-resistant Pseudomonas aeruginosa CCARM 2095 at 0.5 times MIC measured after 60 mins in presence of 0.5 times MIC of chloramphenicol by time-kill kinetics assay; type: functional, organism-based
# Pseudomonas aeruginosa [29] = experiment: Additive antibacterial activity against multidrug-resistant Pseudomonas aeruginosa CCARM 2095 strain assessed as ciprofloxacin MIC by checkerboard assay; type: functional
# Pseudomonas aeruginosa [30] = experiment: Additive antibacterial activity against multidrug-resistant Pseudomonas aeruginosa CCARM 2095 strain assessed as ciprofloxacin fractional inhibitory concentration by checkerboard assay; type: functional
# Pseudomonas aeruginosa [31] = experiment: Additive antibacterial activity against multidrug-resistant Pseudomonas aeruginosa CCARM 2095 strain assessed as bacterial growth inhibition in presence of chloramphenicol by checkerboard assay; type: functional
# Pseudomonas aeruginosa [32] = experiment: Additive antibacterial activity against multidrug-resistant Pseudomonas aeruginosa CCARM 2095 strain assessed as fractional inhibitory concentration in presence of ciprofloxacin by checkerboard assay; type: functional
# Staphylococcus aureus [33] = experiment: Additive antibacterial activity against methicillin-resistant Staphylococcus aureus CCARM 3089 strain assessed as oxacillin MIC by checkerboard assay; type: functional
# Pseudomonas aeruginosa [34] = experiment: Additive antibacterial activity against multidrug-resistant Pseudomonas aeruginosa CCARM 2095 strain assessed as fractional inhibitory concentration in presence of chloramphenicol by checkerboard assay; type: functional
# Pseudomonas aeruginosa [35] = experiment: Additive antibacterial activity against multidrug-resistant Pseudomonas aeruginosa CCARM 2095 strain assessed as chloramphenicol MIC by checkerboard assay; type: functional
# Pseudomonas aeruginosa [36] = experiment: Additive antibacterial activity against multidrug-resistant Pseudomonas aeruginosa CCARM 2095 strain assessed as fractional inhibitory concentration index in presence of ciprofloxacin by checkerboard assay; type: functional
# Pseudomonas aeruginosa [37] = experiment: Additive antibacterial activity against multidrug-resistant Pseudomonas aeruginosa CCARM 2095 strain assessed as bacterial growth inhibition in presence of ciprofloxacin by checkerboard assay; type: functional
# Pseudomonas aeruginosa [38] = experiment: Additive antibacterial activity against multidrug-resistant Pseudomonas aeruginosa CCARM 2095 strain assessed as chloramphenicol fractional inhibitory concentration by checkerboard assay; type: functional
# Staphylococcus aureus [39] = experiment: Antibacterial activity against multidrug-resistant Staphylococcus aureus CCARM 3089 strain assessed as fractional inhibitory concentration by checkerboard assay; type: functional
SMILES,MIC (Pseudomonas aeruginosa [1]) [µM],FIC (Staphylococcus aureus [2]),MIC (Staphylococcus aureus [3]) [µg/mL],Ratio (Staphylococcus aureus [4]),Flu intensity (Cell membrane) [%],fractional inhibitory concentration index (FICI) (Staphylococcus aureus [5]),MIC (Staphylococcus aureus [6]) [µg/mL],FIC (Staphylococcus aureus [7]),Ratio (Staphylococcus aureus [8]),Ratio (Staphylococcus aureus [9]),FIC (Staphylococcus aureus [10]),FIC (Pseudomonas aeruginosa [15]),FIC (Pseudomonas aeruginosa [17]),MIC (Pseudomonas aeruginosa [19]) [µg/mL],fractional inhibitory concentration index (FICI) (Pseudomonas aeruginosa [20]),MIC (Pseudomonas aeruginosa [23]) [µg/mL],also measured
NCCCN(CCCN)c1nc(NCc2ccccc2)nc(N2CC(Cc3ccccc3)N(c3nc(NCc4ccccc4)nc(N(CCCN)CCCN)n3)CC2Cc2ccccc2)n1 (configuration not stated),10,0.25,128,2,3.03,0.5,1,0.25,2,2,0.5,–,–,–,–,–,–
NCCNc1nc(NCCN)nc(N2CC(Cc3ccccc3)N(c3nc(NCCN)nc(NCCN)n3)CC2Cc2ccccc2)n1 (configuration not stated),6.1,–,–,–,8.57,–,–,–,–,–,–,0.5,0.5,8,1,512,MIC (Pseudomonas aeruginosa [11]): 256 µg/mL; MIC (Staphylococcus aureus [12]): 16 µg/mL; MIC (Staphylococcus aureus [13]): 128 µg/mL; fractional inhibitory concentration index (FICI) (Pseudomonas aeruginosa [14]): 1.25; MIC (Pseudomonas aeruginosa [16]): 16 µg/mL; MIC (Pseudomonas aeruginosa [18]): 16 µg/mL; fractional inhibitory concentration index (FICI) (Staphylococcus aureus [21]): 0.75; FIC (Pseudomonas aeruginosa [22]): 1 µg/mL; FIC (Pseudomonas aeruginosa [24]): 0.25
NCCN(CCN)c1nc(NCc2ccccc2)nc(N2CC(Cc3ccccc3)N(c3nc(NCc4ccccc4)nc(N(CCN)CCN)n3)CC2Cc2ccccc2)n1 (configuration not stated),5.4,0.25,128,2,10.5,0.5,2,0.25,2,2,0.5,–,–,–,–,–,Activity (Pseudomonas aeruginosa [25]): Active; Activity (Pseudomonas aeruginosa [26]): Active; inhibition at 8 µg/mL (Pseudomonas aeruginosa [27]): 100%; Activity (Pseudomonas aeruginosa [28]): Active
NCCCCNc1nc(NCCCCN)nc(N2CC(Cc3ccccc3)N(c3nc(NCCCCN)nc(NCCCCN)n3)CC2Cc2ccccc2)n1 (configuration not stated),5.2,–,–,–,6.03,–,–,–,–,–,–,–,–,–,–,–,–
N=C(N)NCCNc1nc(NCCNC(=N)N)nc(N2CC(Cc3ccccc3)N(c3nc(NCCNC(=N)N)nc(NCCNC(=N)N)n3)CC2Cc2ccccc2)n1 (configuration not stated),4.8,–,–,–,2.55,–,–,–,–,–,–,0.25,0.5,16,0.75,256,MIC (Pseudomonas aeruginosa [29]): 512 µg/mL; FIC (Pseudomonas aeruginosa [30]): 0.5; MIC (Pseudomonas aeruginosa [31]): 8 µg/mL; FIC (Pseudomonas aeruginosa [32]): 0.5; MIC (Staphylococcus aureus [33]): 128 µg/mL; FIC (Pseudomonas aeruginosa [34]): 0.5; MIC (Pseudomonas aeruginosa [35]): 256 µg/mL; fractional inhibitory concentration index (FICI) (Pseudomonas aeruginosa [36]): 1; MIC (Pseudomonas aeruginosa [37]): 16 µg/mL; FIC (Pseudomonas aeruginosa [38]): 0.25; FIC (Staphylococcus aureus [39]): 1
